{
  "source": "paper PMC6037779",
  "about": "“Repurposing drugs to target the malaria parasite unfolding protein response” (Scientific Reports, 2018)",
  "key": {"[1]": {"target": "T1, PfGRP78-NBD wt (Plasmodium falciparum, UniProt Q05866)", "T1 construct": "His-tag (pET28-MHL, TEV site) (N, cleaved yes); made in house; host or cells: E. coli BL21(DE3)", "T1 sequence (Q05866 26-404)": "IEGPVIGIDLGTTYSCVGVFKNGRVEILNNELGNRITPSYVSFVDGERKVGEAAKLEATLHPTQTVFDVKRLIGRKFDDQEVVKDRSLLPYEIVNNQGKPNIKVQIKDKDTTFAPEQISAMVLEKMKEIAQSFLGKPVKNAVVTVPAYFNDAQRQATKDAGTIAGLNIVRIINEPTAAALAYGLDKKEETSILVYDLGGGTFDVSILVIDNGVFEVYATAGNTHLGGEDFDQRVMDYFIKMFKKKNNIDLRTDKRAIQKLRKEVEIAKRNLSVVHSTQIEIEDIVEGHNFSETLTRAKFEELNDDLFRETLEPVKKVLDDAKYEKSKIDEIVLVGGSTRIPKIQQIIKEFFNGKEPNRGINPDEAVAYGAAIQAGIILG", "test": "biochemical", "format": "binding", "description": "To quantify the binding affinities of PfGRP78-NBD for the selected compounds, dissociation constants (Kd) were determined by surface plasmon resonance (SPR). […] Purified PfGRP78-FL, PfGRP78-NBD wild-type and mutant, and human GRP78-NBD were immobilized on a CM5 sensorchip using NHS/EDC coupling following the manufacturer protocol to a level of <10,000 RUs, a reference surfaces without immobilized proteins served as a control for nonspecific binding and refractive index changes. […] The running buffer was 10 mM HEPES, pH 7.4, 150 mM NaCl, 0.005% P20, 1% DMSO and 2 mM MgCl2. Buffer only injections were used as blanks. The Biacore responses recorded during the 30 seconds of the injection were used to estimate the association constant (kon) and the 300 seconds after the injection were used to estimate the dissociation constant (koff). All dissociation and kinetic constants were estimated using double subtracted sensorgrams[40] using BiaEvaluation Software (GE Healthcare). All the reported parasite dissociation constants (Kd) were estimated with affinity analysis, and all the reported human Kds were calculated from kinetic constants."}, "[2]": {"target": "T2, PfGRP78-NBD Y39F (Plasmodium falciparum, UniProt Q05866, Y39F)", "T2 construct": "His-tag (pET28-MHL, TEV site) (N, cleaved yes); made in house; host or cells: E. coli BL21(DE3)", "T2 sequence (Q05866 26-404 Y39F)": "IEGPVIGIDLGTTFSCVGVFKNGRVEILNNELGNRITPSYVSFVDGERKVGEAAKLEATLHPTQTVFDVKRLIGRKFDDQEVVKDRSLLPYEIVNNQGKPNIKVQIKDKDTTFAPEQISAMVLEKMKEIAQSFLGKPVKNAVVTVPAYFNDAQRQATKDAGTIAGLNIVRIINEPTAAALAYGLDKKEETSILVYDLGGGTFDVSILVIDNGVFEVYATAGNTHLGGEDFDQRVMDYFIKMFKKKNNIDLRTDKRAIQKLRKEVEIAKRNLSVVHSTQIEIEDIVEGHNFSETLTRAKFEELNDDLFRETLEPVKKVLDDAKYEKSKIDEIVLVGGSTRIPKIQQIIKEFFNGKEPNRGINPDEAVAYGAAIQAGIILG", "test": "DSF thermal shift, PfGRP78-NBD Y39F mutant", "format": "binding", "description": "Initially, their binding was determined using a DSF (Differential Scanning Fluorimetry) assay. In this assay, an interaction between the chaperone and a compound was measured as a change in the protein’s melting temperature (Tm), by subtracting the Tm of the protein by itself to the melting value of the protein in the presence of the compound. Differences above or below 1 °C between the melting temperatures (ΔTm) were considered indicative of a protein-compound interaction.\nDSF screening was carried out using a CFX96 Touch Real-Time PCR Detection System (BioRad, California). The PfGRP78-FL, PfGRP78-NBD wild type and mutant, and human GRP78-NBD were buffered in 25 mM hepes pH 7.5, 250 mM NaCl and assayed in a 96-well format. The final concentration of the protein sample was optimized between 0.05 and 0.2 mg/ml for each protein. The concentration was optimized for each protein to avoid saturation of the fluorescence detector. The GRP78 inhibitors were used at a final concentration of 0.5 mM. SYPRO Orange (Life Technologies, USA) was added as a fluorescence probe in a dilution of 1:1000."}, "[3]": {"system": "HCT-116", "test": "Growth inhibition of human cell line", "format": "cell-based", "description": "Growth inhibition experiments were conducted at least three times per compound. […] The statistical analysis was performed with the software Prism 7 (GraphPad Software, San Diego, CA)."}, "[4]": {"target": "T3, PfGRP78 (Plasmodium falciparum, UniProt Q05866)", "T3 construct": "endogenous in cells; host or cells: P. falciparum W2 culture in human red blood cells", "T3 sequence (Q05866 25-652)": "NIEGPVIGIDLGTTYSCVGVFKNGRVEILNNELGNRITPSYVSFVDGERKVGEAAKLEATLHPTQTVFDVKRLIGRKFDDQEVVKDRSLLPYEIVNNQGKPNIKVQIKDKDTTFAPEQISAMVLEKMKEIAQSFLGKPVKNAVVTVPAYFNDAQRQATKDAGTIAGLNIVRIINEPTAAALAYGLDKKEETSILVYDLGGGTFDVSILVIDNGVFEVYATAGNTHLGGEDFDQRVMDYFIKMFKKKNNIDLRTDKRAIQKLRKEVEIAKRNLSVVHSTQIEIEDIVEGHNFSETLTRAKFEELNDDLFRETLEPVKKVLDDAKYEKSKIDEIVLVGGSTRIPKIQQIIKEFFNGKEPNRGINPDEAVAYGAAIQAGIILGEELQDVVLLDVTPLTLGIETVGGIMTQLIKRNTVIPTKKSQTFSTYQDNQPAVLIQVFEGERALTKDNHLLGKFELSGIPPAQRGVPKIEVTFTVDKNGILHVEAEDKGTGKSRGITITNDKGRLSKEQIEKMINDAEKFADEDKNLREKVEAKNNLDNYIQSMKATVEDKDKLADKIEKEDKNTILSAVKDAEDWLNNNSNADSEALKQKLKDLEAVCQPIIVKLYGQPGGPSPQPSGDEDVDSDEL", "test": "PfGRP78 protein levels by immuno-blot after exposure of P. falciparum W2 culture", "format": "cell-based", "description": "Culture aliquots were taken at several time points and the PfGRP78 levels of were evaluated by immuno-blots (Fig. 4). […] Thus, providing further support to the notion that Apoptozole antiplasmodial activity is mediated by its effect on PfGRP78.\nA 55 ml suspension of ring-stage P. falciparum W2 parasites at 1.5% parasitaemia and 1.5% of hematocrit were split into 11 culture dishes of 5 ml each. One culture plate was served as a starting point (0 h) and of the remaining ten culture plates, half were exposed to 45 µM Apoptozole and half to DMSO 0.09% for 6 h. After 6 h the Apoptozole or DMSO were removed by washing the parasite culture with complete media twice. Culture dishes contained control (DMSO) and Apoptozole treated parasites were incubated at 37 °C in 5% O2 and 5% CO2 atmosphere throughout the duration of the experiment. One of each control and treated group were harvest at times 1, 3, 6, 24 and 48 hours. Samples were processed by harvesting the red blood cell using centrifugation 5 min at 5000 g and washed twice with PBS 1 × 5000 g for 1 min at 4 °C. The pellet was resuspended in 1 ml of 0.02% saponin-PBS solution (Sigma, Aldrich) and centrifuged 10 min 11000 g at 4 °C. The parasite pellet was washed twice with PBS and resuspended in 100 µl PBS. A 30 µl sample was mixed with 30 µl of Laemlii lysis buffer (BioRad) and 3 µl 14.1 M 2-mercaptoethanol (BioRad) and boiled for 10 min. […]"}},
  "data": [
    {"molecule": "COc1ccc(-c2nc(-c3cc(C(F)(F)F)cc(C(F)(F)F)c3)n(Cc3ccc(C(N)=O)cc3)c2-c2ccc(OC)cc2)cc1", "note": "[Apoptozole]", "values": [
      {"measurement": "Kd", "setting": "[1]", "result": "4.27 ± 0.86", "unit": "µM"},
      {"measurement": "DSF binding to PfGRP78-NBD Y39F", "setting": "[2]", "result": "failed to bind"},
      {"measurement": "EC50", "setting": "[3]; HCT-116, human cell line, average of three ± SD, read-out: EC50, growth inhibition, HCT-116", "result": "16.5 ± 12.8", "unit": "µM"},
      {"measurement": "times more selective towards P. falciparum", "setting": "[3]; HCT-116 vs P. falciparum EC50, Results text b30", "result": 2.9, "unit": "times"},
      {"measurement": "PfGRP78 levels, first 6 hours", "setting": "[4]; 45 µM (10xEC50) for 6 h", "result": "did not changed"},
      {"measurement": "PfGRP78 levels, 24 and 48 h time points", "setting": "[4]; 45 µM (10xEC50) for 6 h then washed", "result": "clear reduction"}
    ]}
  ]
}
